Experimental data taken from US9409952B2, “Peptide-compound cyclization method” (Chugai Seiyaku Kabushiki Kaisha, priority 2011, dated 2016).
Where two headings read alike, the source gives them in different places. Starred links: 1 amine or outer side, 2 acyl side, 3 side chain; linkers in the order of their positions; H or OH if unused. Positions of bridges follow the written chain, without caps; N, C: chain ends. Non-standard residues stand in square brackets, D forms with d. Residues, ends and D or L forms follow the SMILES beside them. *: point of attachment. Phe(4-CF3) = N[C@@H](Cc1ccc(C(F)(F)F)cc1)C(=O)O; NMePhe(3-Cl) = CN[C@@H](Cc1cccc(Cl)c1)C(=O)O; NMeF = CN[C@@H](Cc1ccccc1)C(=O)O; NMeGABA = CN(CCCC(=O)[*:2])[*:1]; NMeI = CC[C@H](C)[C@H](NC)C(=O)O; NMeβAla = CN(CCC(=O)[*:2])[*:1]; NMeL = CN[C@@H](CC(C)C)C(=O)O; NMeV = CN[C@H](C(=O)O)C(C)C; NMeA = CN[C@@H](C)C(=O)O; Piperidide = C1CCN(*)CC1; dNMeA = CN[C@H](C)C(=O)O; β3hA = C[C@H](N)CC(=O)O; Sar = CNCC(=O)O; tBu = CC(C)(C)*

Legend:
[1] = PAMPA (parallel artificial membrane permeability assay); type: in vitro ADME; settings: PAMPA
Procedure, shortened: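 Artificial membrane was 10% (w/v) egg lecithin plus 0.5% (w/v) cholesterol in dodecane on a PVDF filter. A 10 mM DMSO stock was added at 0.5% (v/v) to donor buffer (50 mM MOPSO, pH 6.5, 5.0% glycocholic acid). After 18 h at 37 °C, LC/MS or LC/UV gave donor and acceptor levels for Pe.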

[2] = Metabolic stability in human hepatic microsome; type: in vitro ADME; settings: microsomes
[3] = membrane permeation rate (Pe), 50 mM MOPSO buffer pH 6.5 with 5.0% glycocholic acid, 37° C., 18 hours, read-out: iPAMPA Pe
[4] = pH 7.4, human hepatic microsome, NADPH(+), read-out: CL NADPH(+)

## CC[C@H](C)[C@H]1C(=O)N[C@@H](C)C(=O)N[C@H](C(=O)N2CCCCC2)CC(=O)N[C@H](C(C)C)C(=O)N[C@@H](Cc2ccccc2)C(=O)N(C)CC(=O)N[C@@H](CC(C)C)C(=O)N[C@@H](Cc2ccccc2)C(=O)N2CCC[C@H]2C(=O)N[C@@H]([C@@H](C)O)C(=O)N[C@@H](COC(C)(C)C)C(=O)N(C)[C@@H](CC(C)C)C(=O)N1C [DP-55] ([dV]F[Sar]LFPTS(tBu)[NMeL][NMeI]AD-Piperidide; lactam N-12)
[1]; pH 6.5
  Papp at 18 hours, 50 µM: 21 ×10⁻⁶ cm/s
[2]; human, pH 7.4, CL NADPH(+)
  microsomal CLint at 1 uM: 79 µL/min/mg

## CC[C@H](C)[C@@H]1NC(=O)[C@H](CC(C)C)N(C)C(=O)[C@H](C(C)C)N(C)C(=O)[C@H](C)NC(=O)[C@H](C)N(C)C(=O)[C@H](Cc2ccccc2)NC(=O)[C@H]([C@@H](C)O)NC(=O)[C@H](CC(C)C)N(C)C(=O)[C@H](CC(C)C)N(C)C(=O)[C@H](C)N(C)C(=O)C[C@H](C)NC1=O [DP-770] (cyclo(A[NMeV][NMeL]I[β3hA][NMeA][NMeL][NMeL]TF[NMeA]))
[1]; pH 6.5
  Papp at 18 hours, 50 µM: 33 ×10⁻⁶ cm/s
[2]; human, pH 7.4, CL NADPH(+)
  microsomal CLint at 1 uM: 95 µL/min/mg

## CC(C)C[C@H]1C(=O)N(C)[C@@H](C)C(=O)N[C@@H]([C@@H](C)O)C(=O)N(C)[C@@H](C)C(=O)N(C)[C@@H](C(C)C)C(=O)N[C@@H](COC(C)(C)C)C(=O)N[C@H](C(=O)N2CCCCC2)CC(=O)N(C)[C@H](C)C(=O)N(C)[C@@H](Cc2ccccc2)C(=O)N[C@@H](C)C(=O)N(C)[C@@H](C)C(=O)N[C@@H](Cc2ccccc2)C(=O)N1C [DP-409] ([dNMeA][NMeF]A[NMeA]F[NMeL][NMeA]T[NMeA][NMeV]S(tBu)D-Piperidide; lactam N-12)
[1]; pH 6.5
  Papp at 18 hours, 50 µM: 13 ×10⁻⁶ cm/s
[2]; human, pH 7.4, CL NADPH(+)
  microsomal CLint at 1 uM: 28 µL/min/mg

## CC[C@H](C)[C@@H]1NC(=O)[C@H](CC(C)C)N(C)C(=O)[C@H](CC(C)C)N(C)C(=O)CCN(C)C(=O)C[C@@H](C(=O)N2CCCCC2)NC(=O)[C@H](CC(C)C)N(C)C(=O)[C@H](CC(C)C)N(C)C(=O)[C@H](Cc2ccccc2)N(C)C(=O)[C@H]([C@@H](C)O)NC(=O)[C@H](Cc2ccccc2)N(C)C1=O [DP-429] ([NMeβAla][NMeL][NMeL]I[NMeF]T[NMeF][NMeL][NMeL]D-Piperidide; lactam N-10)
[1]; [3]
  Papp at 18 hours, 50 µM: 15 ×10⁻⁶ cm/s
[2]; [4]
  microsomal CLint at 1 uM: 115 µL/min/mg

## CC(C)C[C@@H]1NC(=O)[C@H](CC(C)C)N(C)C(=O)CNC(=O)[C@H](C(C)C)N(C)C(=O)[C@H](C)N(C)C(=O)[C@H]([C@@H](C)O)NC(=O)[C@H](C)N(C)C(=O)CCCN(C)C(=O)C[C@@H](C(=O)N(C)[C@@H](Cc2ccccc2)C(=O)N[C@@H](C)C(=O)N2CCCCC2)NC(=O)[C@H](Cc2ccccc2)NC(=O)[C@H](CC(C)C)N(C)C1=O [DP-365] ([NMeGABA][NMeA]T[NMeA][NMeV]G[NMeL]L[NMeL]FD[NMeF]A-Piperidide; lactam N-11)
[1]; [3]
  Papp at 18 hours, 50 µM: 20 ×10⁻⁶ cm/s
[2]; [4]
  microsomal CLint at 1 uM: 35 µL/min/mg

## CC[C@H](C)[C@@H]1NC(=O)[C@H](Cc2ccccc2)N(C)C(=O)CN(C)C(=O)C[C@@H](C(=O)N2CCCCC2)NC(=O)[C@H](C(C)C)N(C)C(=O)[C@H](COC(C)(C)C)NC(=O)[C@H](CC(C)C)N(C)C(=O)[C@H](Cc2ccccc2)N(C)C(=O)CN(C)C(=O)[C@H]([C@@H](C)O)NC(=O)[C@H](CC(C)C)N(C)C1=O [DP-168] ([Sar][NMeF]I[NMeL]T[Sar][NMeF][NMeL]S(tBu)[NMeV]D-Piperidide; lactam N-11)
[1]; [3]
  Papp at 18 hours, 50 µM: 23 ×10⁻⁶ cm/s
[2]; [4]
  microsomal CLint at 1 uM: 85 µL/min/mg

## CC(C)C[C@@H]1NC(=O)[C@@H](C(C)C)NC(=O)C[C@H](C)NC(=O)[C@H](CC(C)C)N(C)C(=O)[C@H](Cc2cccc(Cl)c2)N(C)C(=O)[C@H](CC(C)C)N(C)C(=O)[C@H](Cc2ccc(C(F)(F)F)cc2)NC(=O)[C@H](C)N(C)C(=O)[C@H]([C@@H](C)O)NC1=O [DP-792] (cyclo(LT[NMeA][Phe(4-CF3)][NMeL][NMePhe(3-Cl)][NMeL][β3hA][dV]))
[1]; [3]
  Papp at 18 hours, 50 µM: 33 ×10⁻⁶ cm/s
[2]; [4]
  microsomal CLint at 1 uM: 16 µL/min/mg

## CC[C@H](C)[C@H]1C(=O)N(C)[C@@H](CC(C)C)C(=O)N[C@H](C(=O)N2CCCCC2)CC(=O)N(C)[C@@H](C)C(=O)N(C)[C@@H](CC(C)C)C(=O)N[C@@H](CC(C)C)C(=O)N(C)[C@@H](Cc2ccccc2)C(=O)N[C@@H](COC(C)(C)C)C(=O)N(C)[C@@H](Cc2ccccc2)C(=O)N[C@@H]([C@@H](C)O)C(=O)N(C)[C@@H](C)C(=O)N1C [DP-100] ([NMeA][NMeL]L[NMeF]S(tBu)[NMeF]T[NMeA][NMeI][NMeL]D-Piperidide; lactam N-11)
[1]; pH 6.5
  Papp at 18 hours, 50 µM: 1.7 ×10⁻⁶ cm/s
[2]; human, pH 7.4, CL NADPH(+)
  microsomal CLint at 1 uM: 80 µL/min/mg

## CC(C)C[C@@H]1NC(=O)[C@H](CC(C)C)N(C)C(=O)[C@H](Cc2ccccc2)N(C)C(=O)CNC(=O)[C@H]([C@@H](C)O)NC(=O)[C@H](CC(C)C)N(C)C(=O)[C@H](Cc2ccccc2)NC(=O)[C@@H](C)N(C)C(=O)C[C@@H](C(=O)N2CCCCC2)NC(=O)[C@H](COC(C)(C)C)NC1=O [DP-120] ([dNMeA]F[NMeL]TG[NMeF][NMeL]LS(tBu)D-Piperidide; lactam N-10)
[1]; [3]
  Papp at 18 hours, 50 µM: 50 ×10⁻⁶ cm/s
[2]; [4]
  microsomal CLint at 1 uM: 84 µL/min/mg
